The test system of one experiment is platelet aggregation. The conditions noted are these: as stated by prior reference A; cited from earlier work.
The conditions of experiment [1]: as stated by prior reference A; cited from earlier work.
The conditions of experiment [2]: as stated by prior reference A; cited from earlier work. The source holds these as a separate data set.
Experiment [3] relates to carrageenin-induced paw edema. The experiment can be described thus: Rat carrageenin-induced paw edema experiment B (intravenous). It counts as in vivo, Male Wistar rats. To be noted: 1 mg/kg, immediately before carrageenin, 3 hours after induction.
Method: Rat (carrageenin-induced paw edema experiment B)
0.1 ml of 1% carrageenin (PICNIN A, mfd. by Zushi Kagaku K.K.) was subcutaneously injected into the right hind paw of each rat and the edema thus induced was measured with the lapse of time by using a device for measuring foot edema. A test compound was suspended in a 60% N,N-dimethylformamide solution in physiological saline and intravenously injected to the rat immediately before the injection of carrageenin.
In experiment [4] the test system is acetic acid-induced writhing. The experiment can be described thus: Mouse acetic acid-induced writhing experiment. It counts as in vivo, Male ddy mice. To be noted: oral, 20 mg/kg, 30 minutes before 0.6% acetic acid; writhing counted for 10 minutes. The method, then: (Mouse acetic acid-induced writhing experiment)
Male ddy mice weighing about 23 g were divided into groups each comprising 7 to 9 animals.
30 minutes after a test compound was orally administered, a 0.6% acetic acid solution in physiological saline was intraperitoneally administered in a dose of 0.1 ml per 10 g of the body weight. From 5 minutes after the intraperitoneal administration, the frequency of writhing was counted for 10 minutes to determine the inhibition ratio by comparing with the frequency of writhing in the control group.
A general note: Writhing tests count abdominal constrictions after an irritant is injected.

Experiment [5] concerns carrageenin-induced paw edema. The experiment is described as follows: Rat carrageenin-induced paw edema experiment A (oral). It counts as in vivo, Male Wistar rats. To be noted: 10 mg/kg, 1 hour before carrageenin, 3 hours after induction. The method, then: Rat (carrageenin-induced paw edema experiment A)
Male Wistar rats weighing 140 to 160 g were divided into groups each comprising 8 animals.
0.1 ml of 1% carrageenin (PICNIN A, mfd. by Zushi Kagaku K.K.) was subcutaneously injected into the right hind paw of each rat and the edema thus induced was measured with the lapse of time by using a device for measuring foot edema. A test compound was suspended in a 0.5% CMC solution and orally administered to the rat 1 hour before the injection of carrageenin. The results expressed in the inhibition ratio (average) of each test group to the control group, to which no compound had been orally administered, 3 hours after the induction of the reaction are given in Table 2.
Background: In the carrageenan paw model, swelling and tenderness develop within hours.

In experiment [6] the test system is adjuvant arthritis (edema of the hind paw). The experiment can be described thus: Rat adjuvant arthritis experiment. To be noted: oral, 10 mg/kg once a day for 7 days. It counts as in vivo, male Wistar rat. The method, then:
(Rat adjuvant arthritis experiment)
0.1 ml of 6 mg/ml Mycobacterium butyricum suspension in liquid paraffin was intracutaneously injected into the tail root of each male Wistar rat weighing about 200 g. 20 days thereafter, rats clearly suffering from arthritis in the hind paw were selected and divided into groups each comprising 7 animals.
A test compound was orally administered in a dose as specified below once a day for 7 days. Then the effect of the test compound on the adjuvant arthritis was examined by using an inhibition ratio on the edema of the hind paw as an indicator. The inhibition ratio was calculated according to the following equation.

The test system of experiment [7] is carrageenin-induced paw edema. The experiment is described as follows: Rat carrageenin-induced paw edema experiment C (injected together with carrageenin into the paw). The class given is in vivo, Male Wistar rats. The conditions noted are these: 3 hours after induction.
Method: Rat (carrageenin-induced paw edema experiment C)
Male Wistar rats weighing 160 to 170 g were divided into groups each comprising 7 animals.
0.1 ml of 1% carrageenin (PICNIN A, mfd. by Zushi Kagaku K.K.) containing a test compound was subcutaneously injected into the right hind paw of each rat and the edema thus induced was measured with the lapse of time by using a device for measuring foot edema.
The next experiment has as its target T1, prostaglandin synthetase (Ovis aries, UniProt P05979).
T1 construct: originating in sheep seminal vesicle; from tissue; host or cells: sheep seminal vesicle
T1 sequence (P05979 25-600): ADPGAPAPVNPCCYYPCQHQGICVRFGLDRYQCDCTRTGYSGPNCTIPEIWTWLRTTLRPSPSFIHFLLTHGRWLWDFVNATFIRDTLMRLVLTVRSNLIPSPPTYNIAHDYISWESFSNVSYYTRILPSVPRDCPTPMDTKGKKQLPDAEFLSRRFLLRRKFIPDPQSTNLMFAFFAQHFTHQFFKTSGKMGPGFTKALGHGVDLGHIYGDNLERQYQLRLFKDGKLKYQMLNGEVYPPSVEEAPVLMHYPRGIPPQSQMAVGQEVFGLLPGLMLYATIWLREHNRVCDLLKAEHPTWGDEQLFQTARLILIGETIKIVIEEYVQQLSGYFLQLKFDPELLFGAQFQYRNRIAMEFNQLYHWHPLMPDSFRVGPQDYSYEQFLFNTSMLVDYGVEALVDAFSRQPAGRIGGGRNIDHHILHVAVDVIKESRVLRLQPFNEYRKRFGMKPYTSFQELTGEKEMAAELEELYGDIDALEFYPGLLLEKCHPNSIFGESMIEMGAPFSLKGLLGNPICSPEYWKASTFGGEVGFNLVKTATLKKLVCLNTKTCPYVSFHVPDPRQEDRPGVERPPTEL
The experiment can be described thus: Effect of inhibiting biosynthesis of prostaglandin E2. It counts as biochemical, sheep. The conditions noted are these: 10^-7; 10 minutes incubation.

The subject of the next experiment is biosynthesis of 5-HETE. The experiment is described as follows: Effect of inhibiting biosynthesis of 5-HETE in neutrophiles. The class given is cell-based, Hartley guinea pigs. The conditions noted are these: 10^-6; A 23187, 14C-arachidonic acid.

Method for biosynthesis of 5-HETE: (Effect of inhibiting biosynthesis of 5-HETE)
Hartley guinea pigs weighing 300 to 500 g were used.
0.2% oyster glycogen was intraperitoneally administered to each guinea pig and, after 16 hours, neutrophiles of the animal were harvested. […] After ceasing the reaction with 1N hydrochloric acid under ice-cooling, the reaction mixture was extracted with ethyl acetate. Then the extract was solidified by drying with nitrogen gas, dissolved in ethanol and developed on a TLC with a developer. Then the aimed part was scraped up and the radioactivity was measured with a liquid scintillation counter.
Method for prostaglandin synthetase: (Effect of inhibiting biosynthesis of prostaglandin E2)
To a tris buffer solution containing 50 mM of glutathione and 50 mM of epinephrine were added prostaglandin synthetase (originating in sheep seminal vesicle) and a test drug dissolved in DMSO and incubated for 10 minutes. Then the reaction was ceased with 1 N hydrochloric acid under ice-cooling and the reaction mixture was extracted with ethyl ether. Then the extract was solidified by drying with nitrogen gas, dissolved in ethanol and developed on a TLC with a developer. Then the aimed part was scraped up and the radioactivity was measured with a liquid scintillation counter.

`CC(=O)N(C)c1nc(-c2ccccc2)c(-c2ccccc2)s1` [2-(N-methyl-N-acetyl)amino-4,5-diphenylthiazole]: in the experiment on platelet aggregation, the “platelet aggregation inhibiting effect (in words)” value is on record as “platelet aggregation inhibiting effect”. Moreover, in [1], the “hypocholesterolemic effect (in words)” value is given as “hypocholesterolemic effect”. Also, in experiment [2], the “antiinflammatory and analgesic effects (in words)” value was “weak or scarcely any”.

Regarding `CNc1nc(-c2ccccc2)c(-c2ccccc2)s1` [2-methylamino-4,5-diphenyl-thiazole], the “platelet aggregation inhibiting effect (in words)” value in the experiment with platelet aggregation is reported as “platelet aggregation inhibiting effect”. The “hypocholesterolemic effect (in words)” value in experiment [1] is “hypocholesterolemic effect”. Further, the “antiinflammatory and analgesic effects (in words)” value in experiment [2] is recorded as “weak or scarcely any”.

For the molecule `c1ccc(-c2nc(N3CCOCC3)sc2-c2ccccc2)cc1` [2-morpholino-4,5-diphenylthiazole], in the experiment with platelet aggregation, the “platelet aggregation inhibiting effect (in words)” value is given as “platelet aggregation inhibiting effect”. Moreover, the “hypocholesterolemic effect (in words)” value in experiment [1] is “hypocholesterolemic effect”. Moreover, the “antiinflammatory and analgesic effects (in words)” value in [2] was “weak or scarcely any”.

`O=S(=O)(Nc1nc(-c2ccccc2)c(-c2ccccc2)s1)C(F)(F)F` [Ex. 1, 2-trifluoromethanesulfonylamino-4,5-diphenylthlazole]: the Inhibition ratio in experiment [3] stood at 41.3%; in [4], 24.6%; in experiment [5] it was 44.9%; in experiment [6], 36.6%; in [7] (0.003 mg/kg), 44.2%; on prostaglandin synthetase, 45.5%. Besides, the Inhibition ratio in the experiment with biosynthesis of 5-HETE is given as 40.5%.

Turning to `COc1ccc(-c2nc(NS(=O)(=O)C(F)(F)F)sc2-c2ccccc2)cc1` [Ex. 10], the Inhibition ratio in experiment [3] was 52.8%; in [4], 46.1%; in [5] it was 46.8%; in [6], 45.6%; in experiment [7] (0.003 mg/kg), 50.7%; on prostaglandin synthetase, 57.2%. In addition, the Inhibition ratio in the experiment on biosynthesis of 5-HETE is 45.1%.

For `O=[N+]([O-])c1ccc(-c2sc(NS(=O)(=O)C(F)(F)F)nc2-c2ccccc2)cc1` [Ex. 17], the Inhibition ratio in experiment [3] stood at 36.6%; in experiment [4], 36.3%; in [5] it was 23.9%; in experiment [6], 35.3%; in experiment [7] (0.003 mg/kg), 37.1%; on prostaglandin synthetase, 48.1%. In addition, the Inhibition ratio in the experiment with biosynthesis of 5-HETE turned out to be 47.3%.

`COc1ccc(-c2sc(NS(=O)(=O)C(F)(F)F)nc2-c2ccccc2)cc1` [Ex. 32]: the Inhibition ratio is 48.1% in experiment [3]; 28.6% in experiment [4]; 52.3% in experiment [5]; 34.6% in experiment [6]; 50.4% in experiment [7] (0.003 mg/kg); 52.2% at prostaglandin synthetase. In addition, the Inhibition ratio in the experiment on biosynthesis of 5-HETE stood at 44.8%.

In the case of `O=S(=O)(Nc1nc(-c2ccccc2)c(-c2ccc(F)cc2)s1)C(F)(F)F` [Ex. 37], the Inhibition ratio was determined as 46.4% in experiment [3]; 18.1% in experiment [4]; 56.2% in experiment [5]; 44.9% in experiment [6]; 49.8% in experiment [7] (0.003 mg/kg); 43.9% at prostaglandin synthetase. In addition, the Inhibition ratio in the experiment with biosynthesis of 5-HETE amounted to 48.7%.

Turning to `CC(Cc1ccc(O)c(O)c1)C(C)Cc1ccc(O)c(O)c1` (centres unmarked) [NDGA, nordihydroguairetic acid, reference compound], in the experiment with biosynthesis of 5-HETE, the Inhibition ratio is listed as 43.0%.

For `COc1ccc2c(c1)c(CC(=O)O)c(C)n2C(=O)c1ccc(Cl)cc1` [indomethacin, reference compound], the Inhibition ratio in experiment [3] worked out at 47.4%; in experiment [7] (0.03 mg/kg) it was 44.7%.

Source of the values: patent US5449783A, “Diphenylthiazole derivative” (Hisamitsu Pharmaceutical Co., Inc., priority 1993, dated 1995).
